Four compounds from PMC8058163 (Clinical pharmacology and therapeutics, 2020) can be followed below.

A short description of one series: clinical. The following applies: both, human, in vivo.

Where two headings read alike, the source gives them in different places.

`CN(C)C(=N)N=C(N)N` [Metformin, metformin]: in “clinical”, the AUC(0-inf) is 3.8 µM·h, the AUC(0-t) worked out at 3.6 µM·h, the CL renal was 700 mL/min and the peak level (Cmax) was 540 nM. In addition, in “clinical” (po), the total exposure AUC(0-inf) was 5 µM·h, the AUC(0-t) was 4.7 µM·h, the CL renal was 683 mL/min and the Cmax came out at 750 nM.

For `Cc1ncc2n1-c1ccc(Cl)cc1C(c1ccccc1F)=NC2` [Midazolam, midazolam], under “in the presence of goldenseal”, the “increase of geometric mean Cmax” value was 31% and the “increase of systemic exposure” value is given as ~ 40%. In the series “clinical”, this compound had an AUC(0-inf) of 0.096 µM·h, an area under the curve AUC(0-t) of 0.086 µM·h and a CL renal of 1.17 mL/min. In the series “clinical” (po), the area under the curve AUC(0-inf) is 0.067 µM·h, the exposure AUC(0-t) is 0.062 µM·h, the CL renal is 0.833 mL/min and the highest level (Cmax) was 26 nM. In the series “clinical” (po), this compound had a half-life of 3.9 h.

Consider `CC(C)c1nc(N(C)S(C)(=O)=O)nc(-c2ccc(F)cc2)c1/C=C/[C@@H](O)C[C@@H](O)CC(=O)O` [Rosuvastatin acid, rosuvastatin], for which, where the note is “both, human, in vivo”, the “AUC0–24, goldenseal exposure / baseline ratio” value is 1.01 [0.91–1.13]; the “ClR, goldenseal exposure / baseline ratio” value was 0.96 [0.89–1.03]; the “Cmax, goldenseal exposure / baseline ratio” value is 1.08 [0.94–1.22]. Further, in “clinical”, the AUC(0-t) amounted to 0.06 µM·h, the CL renal was 247 mL/min and the Cmax was found to be 7.9 nM. In the series “clinical” (po), the AUC(0-t) is 0.059 µM·h, the CL renal was 257 mL/min and the Cmax worked out at 7.4 nM.

Regarding `CC(C)c1nc(N(C)S(C)(=O)=O)nc(-c2ccc(F)cc2)c1/C=C/[C@@H]1C[C@@H](O)CC(=O)O1` [Rosuvastatin lactone, rosuvastatin lactone], under “human, in vivo”, the “AUC0–72” value was 27 [23–32] nM*h and the Cmax stood at 1.5 nM. For the same compound, where the note is “human, in vivo, po”, the “AUC0–72” value was 28 [24–32] nM*h and the peak concentration (Cmax) worked out at 1.5 nM.
